Measurements published in PubChem BioAssay (NCI).
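Growth conditions: 96-well plates. Treatment: test compound, 48 hours, 5 concentrations. Analysis: linear interpolation between bracketing concentrations; unreached endpoints set to highest concentration. The concentration for full growth arrest is given as TGI.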

Experiments:
Assay in all cases: DTP human tumour cell line panel, 48 h
[1] = system: A498 renal
[2] = system: DU-145 prostate
[3] = system: HOP-92 NSCLC
[4] = system: NCI-H23 lung
[5] = system: MDA-MB-231 breast
[6] = system: MALME-3M melanoma
[7] = system: HL-60(TB) leukemia
[8] = system: OVCAR-5 ovarian
[9] = system: PC-3 prostate
[10] = system: MCF7 breast
[11] = system: NCI/ADR-RES ovarian
[12] = system: RXF 393 renal
[13] = system: HT29 colon
[14] = system: SF-268 CNS
[15] = system: SNB-75 CNS
[16] = system: NCI-H460 lung
[17] = system: MOLT-4 leukemia

Structure (SMILES) | TGI [1] [µM] | TGI [2] [µM] | TGI [3] [µM] | TGI [4] [µM] | TGI [5] [µM] | TGI [6] [µM] | TGI [7] [µM] | TGI [8] [µM] | TGI [9] [µM] | TGI [10] [µM] | TGI [11] [µM] | TGI [12] [µM] | TGI [13] [µM] | TGI [14] [µM] | TGI [15] [µM] | TGI [16] [µM] | TGI [17] [µM]
O=C(Cc1csc2[n+]1C(=O)/C(=C/c1ccc(Cl)cc1)S2)Nc1ccccc1 | 40.1 | > 100 | 78.4 | 91.3 | 37.3 | 90.6 | 74.2 | 80.9 | 41.3 | 66.1 | 82.4 | 42.6 | 76.1 | 78 | 94.6 | 48.8 | 
COc1cc2c(SCCN(C)C)nc3ccccc3c2c2ccccc12 | 35.8 | 15.8 | 5.83 | 15 | 5.52 | 3.99 |  | 4.03 | 8.24 | 3.02 | 16.5 | 4.29 | > 100 | 5.39 | 8.32 | 3.33 | 8.14
O=[N+]([O-])c1ccc(C2Nn3c(nnc3-c3cccc([N+](=O)[O-])c3)S2)cc1 (stereo not given) | > 100 | > 100 | > 100 | > 100 | > 100 | > 100 | > 100 | > 100 | > 100 | > 100 | > 100 | > 100 | > 100 | > 100 | > 100 | > 100 | > 100
CC(NC1=NCCO1)c1ccsc1 (stereo not given) | > 100 | > 100 | 92.5 | > 100 | 35.6 | 58 | 53.3 | > 100 | 57.8 | > 100 | > 100 | 85.8 | 42.7 |  | 47.3 | 33.2 | 52.3
CC(C)=NC(C(=O)O)C(C)(C)S (stereo not given) | > 100 | > 100 | > 100 | > 100 | > 100 | > 100 | > 100 | > 100 | > 100 | > 100 | > 100 | > 100 | > 100 | > 100 | > 100 | > 100 | > 100
Cc1cc(N(C)c2ccccc2)nc(N(C)c2ccccc2)n1 | > 100 | > 100 |  | > 100 | 78.9 | 55.8 | 59.6 | 52.6 | > 100 | 68.4 | > 100 | 59.5 | 39 | > 100 | > 100 | > 100 | 99.9
CN(C)CCNc1ncnc2nc(-c3ccccc3)c(-c3ccccc3)nc12 | > 100 | > 100 |  | > 100 | > 100 | > 100 | > 100 | > 100 | > 100 | > 100 | > 100 | > 100 | > 100 | > 100 | > 100 |  | 76
Cc1cc2c(cc1Cl)SC(NNC(=O)c1ccccc1)=NS2(=O)=O | > 10 | > 10 |  | > 10 | > 10 | > 10 | > 10 | > 10 | > 10 | 5.76 | > 10 | > 10 | > 10 | > 10 | > 10 | > 10 | > 10
CC(=O)O[C@H]1[C@@H](OC2CCCC2(c2ccccc2)c2ccccc2)O[N+]([O-])=C[C@@H]1c1ccccc1 (stereo not given in full) | 23.4 | 23.7 | 18.2 | 35.9 | 40.9 |  | 5.71 | 35.6 | 21.2 | 11.3 | 12.9 | 8.48 | 6.94 | 13.4 | 18 | 60.2 | 7.54
Cc1ccc(S(=O)(=O)NC(=O)NC(CCCCN)C(=O)O)cc1 (stereo not given) |  | > 100 | > 100 | > 100 | > 100 | > 100 | > 100 |  | > 100 | > 100 | > 100 | > 100 |  | > 100 | > 100 | > 100 | > 100
C#CCNCC(=O)O | > 100 | > 100 | > 100 | > 100 | > 100 | > 100 |  | > 100 | > 100 | > 100 | > 100 | > 100 | > 100 | > 100 |  |  | > 100
c1ccc(C2(c3cc4ccccc4[nH]3)OCCO2)nc1 | > 100 | > 100 | > 100 | > 100 | > 100 | > 100 | > 100 | > 100 | > 100 | > 100 | > 100 | > 100 | > 100 | > 100 | > 100 | > 100 | 
CC(=O)Nn1c(Cc2ccc(Cl)cc2)nn(C)c1=O | > 100 | > 100 | > 100 | > 100 | > 100 | > 100 | > 100 | > 100 | > 100 | > 100 | > 100 |  | > 100 | > 100 | > 100 | > 100 | > 100
CC1=C(C)C2(C#N)C(=O)N3C(=NC(c4ccco4)NC3c3ccco3)C2(C#N)C(c2ccco2)N1 (stereo not given) | > 100 | > 100 | > 100 | > 100 | > 100 | > 100 | > 100 | > 100 | > 100 | > 100 | > 100 | > 100 | > 100 | > 100 |  | > 100 | > 100
COC1=CC(=O)C2=C(C1=O)[C@H]1CC[C@]3(C)C(=O)CC[C@H]3[C@@H]1CC2 | > 100 | 57.1 | 35.8 | > 100 | 16.9 |  | 22.4 | 44.6 | 85.2 | 35.4 | > 100 | 67.8 | 75.3 | 46.3 | > 100 | > 100 | > 100
O=[N+]([O-])c1ccccc1S(=O)(=O)c1cccc2c1NCCC2 | > 100 | > 100 | > 100 |  | > 100 | > 100 | > 100 | > 100 | > 100 | > 100 | > 100 | > 100 | > 100 | > 100 | > 100 | > 100 | > 100
C#CC(O)/C=C/C(O)CCCC(O)CC#CC(O)C#CCCCCC(O)/C=C/CCCCCC(=O)CCCCCCCCCCCCCC(O)C(O)C#CC(=O)O (stereo not given) | > 25 | > 25 | > 25 | > 25 | > 25 | > 25 | > 25 | > 25 | > 25 | > 25 | > 25 |  | > 25 | > 25 | > 25 | > 25 | > 25
OC(Cc1cnnc2ccccc12)C(Cl)(Cl)Cl (stereo not given) | > 10 | > 10 | > 10 | > 10 | > 10 | > 10 | > 10 |  | > 10 | > 10 | > 10 | > 10 | > 10 | > 10 | > 10 | > 10 | > 10
O=C(O)CCC1C(=O)C2CCN1CC2 (stereo not given) | > 100 | > 100 |  | > 100 | > 100 | > 100 | > 100 | > 100 | > 100 | > 100 | > 100 | > 100 | > 100 | > 100 | > 100 | > 100 | > 100
CSc1ccccc1NC1=NCCO1 | > 100 | > 100 | > 100 | > 100 | > 100 | > 100 | > 100 | > 100 | > 100 | > 100 | > 100 | > 100 | > 100 | > 100 |  | > 100 | > 100
Cc1ccc(NC(=O)CC(=O)N2N=C(N(c3ccccc3)c3ccccc3)CC2c2ccccc2)cc1 (stereo not given) | > 100 | > 100 | > 100 | > 100 | > 100 |  | > 100 | > 100 | > 100 | > 100 | > 100 | > 100 | > 100 | > 100 | > 100 | > 100 | > 100
c1ccc(CN2C3C4N(Cc5ccccc5)C2C2N(Cc5ccccc5)C(C(N2Cc2ccccc2)N4Cc2ccccc2)N3Cc2ccccc2)cc1 | > 100 | > 100 | > 100 | > 100 | > 100 |  | > 100 | > 100 | > 100 | > 100 | > 100 | > 100 | > 100 | > 100 | > 100 |  | > 100
CC1CCC2C(C)C(OC(=O)CCC(=O)O)OC3OC4(C)CCC1C32OO4 (stereo not given) | > 100 | 63.4 | 31 |  | > 100 |  | 4.65 | 57.8 | > 100 | 28.5 | > 100 |  | > 100 | > 100 | > 100 | 33.4 | 15
COc1ccc(/C(=N/Nc2nc3ccccc3n2Cc2ccccc2)C(=O)O)cc1 | 44.5 | > 100 | 49.1 | 43.3 | 80.2 | 91.7 | 11.5 | > 100 | > 100 | 51.2 | 54 |  | > 100 | 63.2 | 81.9 | 21.4 | 79.6
C=C1C(=O)O[C@H]2C(=O)[C@H](C)CCC/C(C)=C/CC[C@@]3(C)O[C@@H]3C[C@@H]12 | 32.8 | 11.1 | 2.99 | 29.3 | 23.3 |  | 6.8 | 18.9 | 21.2 | 15 | 40.5 |  | 10.6 | 16.4 |  | 30.8 | 4.72
COC(=O)C1=C(N)C2=C(N)Oc3ccccc3C2CC1=C(C#N)C#N (stereo not given) | 68.6 | 61.9 |  | 54 | 59.4 | 58.1 | > 100 | 81.7 | > 100 | 93.1 | 47.5 | > 100 | 53.3 | 89.4 | 68.6 |  | > 100
O=C1CC(=O)NC(=NN2C(=O)CSC2c2ccc(Cl)cc2)N1 (stereo not given) | > 100 | > 100 | > 100 | > 100 | > 100 | > 100 |  | > 100 | > 100 | > 100 | > 100 | > 100 | > 100 | > 100 | > 100 | > 100 | > 100
NN/C(=N\S(=O)(=O)c1cc(S(=O)(=O)c2ccccc2)cs1)Nc1ccc(Cl)cc1 | > 100 | > 100 | > 100 | > 100 | > 100 |  | 32.7 | > 100 | 69.7 | > 100 | > 100 | 53.9 | > 100 | 89 | 67.2 | 56.6 | 56.2
O=c1c2c3c(sc2nc2n1sc1nc4sc5c(c4c(=O)n12)CCCC5)CCCC3 | > 100 | > 74.3 | > 91.8 | 79.7 | > 69.5 |  | 62.3 | > 100 | > 100 | 50.8 | > 71.4 | 38.5 | > 58.8 | > 100 | > 32.8 | > 100 | > 66.9
